Experimental data as given in ChEMBL document CHEMBL1201862, “PubChem BioAssay data set” (2004).
Active and inactive are the calls of the source.

Key:
[1] = molecular target: T1, Calpain-2 catalytic subunit (Sus scrofa, UniProt P43367); test: pig calpain II inhibitor potency, dose response, biochemical, fluorogenic peptide substrate (AID 1420); type: functional
T1 sequence (P43367 whole entry): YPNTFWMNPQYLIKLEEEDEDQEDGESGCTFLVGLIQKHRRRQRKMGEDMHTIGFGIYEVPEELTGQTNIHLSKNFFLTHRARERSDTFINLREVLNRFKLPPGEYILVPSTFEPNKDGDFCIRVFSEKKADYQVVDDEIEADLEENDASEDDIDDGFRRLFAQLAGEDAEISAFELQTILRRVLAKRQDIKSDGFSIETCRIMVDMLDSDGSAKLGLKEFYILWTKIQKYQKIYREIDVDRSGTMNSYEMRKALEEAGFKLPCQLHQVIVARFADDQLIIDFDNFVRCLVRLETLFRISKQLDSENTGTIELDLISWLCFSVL

Leucine aminopeptidase = molecular target: T2, Leucine aminopeptidase (Plasmodium falciparum 3D7, UniProt Q8IL11); test: P. falciparum M17LAP inhibitors, primary screen, biochemical, fluorogenic H-Leu-NHMec substrate, 1536-well (AID 1619); type: functional
T2 sequence (Q8IL11 whole entry): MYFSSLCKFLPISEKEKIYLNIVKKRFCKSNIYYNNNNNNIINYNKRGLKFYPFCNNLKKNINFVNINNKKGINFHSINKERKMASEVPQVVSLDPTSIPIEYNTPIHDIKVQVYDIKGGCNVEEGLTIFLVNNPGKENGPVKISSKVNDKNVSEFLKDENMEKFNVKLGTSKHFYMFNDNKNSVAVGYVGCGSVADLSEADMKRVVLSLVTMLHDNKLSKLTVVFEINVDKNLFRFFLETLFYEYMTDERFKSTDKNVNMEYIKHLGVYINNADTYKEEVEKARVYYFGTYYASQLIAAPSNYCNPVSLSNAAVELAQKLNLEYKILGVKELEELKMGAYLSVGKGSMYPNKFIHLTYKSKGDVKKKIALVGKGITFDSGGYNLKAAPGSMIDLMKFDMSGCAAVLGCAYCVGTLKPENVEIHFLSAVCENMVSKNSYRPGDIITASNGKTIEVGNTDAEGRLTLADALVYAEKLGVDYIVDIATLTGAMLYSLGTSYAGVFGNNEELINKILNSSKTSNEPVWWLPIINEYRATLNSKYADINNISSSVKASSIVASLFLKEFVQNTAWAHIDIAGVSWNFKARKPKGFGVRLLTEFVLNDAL

[2] = Vero cell cytotoxicity, dose response, cytotoxicity control for Vif-APOBEC3G degradation inhibitor project, Vero cells (AID 1117358); type: functional; details: Human immunodeficiency virus 1, Vero
Nonstructural protein 1 = Nonstructural protein 1 (Influenza A virus, UniProt Q194T2); type: functional, Influenza A virus (A/California/07/2009(H1N1))
Caspase-6 = molecular target: T3, Caspase-6 (Homo sapiens, UniProt P55212); test: human caspase-6 inhibitors, dose response, biochemical, VEID-R110 fluorescence, cherry-pick (AID 720632)
T3 sequence (P55212 whole entry): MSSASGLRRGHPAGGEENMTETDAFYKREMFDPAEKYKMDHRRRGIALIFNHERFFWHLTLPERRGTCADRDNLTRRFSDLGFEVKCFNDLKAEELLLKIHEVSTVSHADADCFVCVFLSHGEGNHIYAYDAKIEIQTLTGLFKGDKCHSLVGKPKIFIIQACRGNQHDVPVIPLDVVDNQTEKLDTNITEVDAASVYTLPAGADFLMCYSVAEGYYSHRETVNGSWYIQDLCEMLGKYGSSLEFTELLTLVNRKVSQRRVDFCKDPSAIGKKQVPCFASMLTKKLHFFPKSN

[3] = Luminescence Cell-Based Dose Confirmation HTS to Identify Activators of 5'UTR Stem-Loop Driven Alpha-Synuclein mRNA Translation in H4 Neuroglioblastoma Cells. [Related pubchem assays: 1829 (Project Summary), 1814 (Primary HTS)]; type: functional
[4] = Luminescence Cell-Based Dose Response HTS to Identify Activators of Luciferase Translation or Activity in H4 […] Cells. [Related pubchem assays: 1829 (Project Summary), 1814 (Primary HTS)]; type: functional
[5] = tested on: Streptococcus sp. 'group A'; test: growth inhibition of control SK(-) GAS strain, dose response, counter-screen for streptokinase expression inhibitor project, luminescence, kanamycin, BacTiterGlo, confirmation (AID 1900); type: functional, organism-based
H4 = test: Luminescence Cell-Based Dose Response HTS to Identify Activators of 5'UTR Stem-Loop Driven Prion Protein mRNA Translation in H4 Neuroglioblastoma Cells. [Related pubchem assays: 1829 (Project Summary), 1814 (Primary HTS)]; type: functional; details: Homo sapiens
Streptokinase A = molecular target: T4, Streptokinase A (Streptococcus pyogenes serotype M1, UniProt P10520); test: S. pyogenes streptokinase expression inhibitors, potency, dose response, plasminogen activation absorbance, OD405 (AID 1914); type: functional, Streptococcus pyogenes M1 GAS;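 also: secreted streptokinase activity via plasminogen activation per viability signal from cell pellet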
T4 sequence (P10520 whole entry): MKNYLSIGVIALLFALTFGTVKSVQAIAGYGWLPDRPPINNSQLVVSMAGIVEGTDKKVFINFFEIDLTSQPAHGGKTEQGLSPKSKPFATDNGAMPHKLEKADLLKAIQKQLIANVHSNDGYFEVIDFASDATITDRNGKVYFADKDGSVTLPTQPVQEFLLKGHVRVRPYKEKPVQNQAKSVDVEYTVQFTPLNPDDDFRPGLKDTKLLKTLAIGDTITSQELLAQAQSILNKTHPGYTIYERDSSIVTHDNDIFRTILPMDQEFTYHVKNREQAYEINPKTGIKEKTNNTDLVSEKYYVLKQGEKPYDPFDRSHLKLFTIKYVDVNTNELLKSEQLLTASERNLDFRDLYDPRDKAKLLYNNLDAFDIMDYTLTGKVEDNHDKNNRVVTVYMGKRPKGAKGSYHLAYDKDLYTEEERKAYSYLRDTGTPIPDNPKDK

Streptococcus = test: Group A Streptococcus viability loss, dose response, counter-screen for streptokinase expression inhibitor project, luminescence, BacTiterGlo (AID 1915); type: functional, organism-based;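 also: potency for reduction of bacterial viability or growth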
[6] = inhibitors of intracellular T. cruzi replication, confirmation, NIH3T3 host cells, beta-gal luminescence (AID 2044); type: functional, cell-based;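 also: intracellular parasites grown in NIH/3T3 mouse fibroblasts as host cells; luminescent beta-galactosidase reporter signal from transgenic T. cruzi replicating inside host cells; inhibitors lower the luminescence signal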
[7] = cytotoxicity toward NIH3T3 fibroblasts, dose response, counter-screen, cell-based, ATP luminescence, mouse fibroblasts (AID 2010); type: functional;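 also: cells exposed to compound for about 90 hours before reading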
[8] = molecular target: Induced myeloid leukemia cell differentiation protein Mcl-1 (Homo sapiens, UniProt Q07820); type: functional
[9] = THP-1 cell cytotoxicity, dose response, cytotoxicity control for Vif-APOBEC3G degradation inhibitor project, THP-1 cells (AID 1117359); type: functional; details: Human immunodeficiency virus 1, THP-1
Prothrombin = Prothrombin (Homo sapiens, UniProt P00734); test: Thrombin 1536 HTS Dose Response Confirmation. [Related pubchem assays: 1046 (Thrombin 1536 HTS; hits were confirmed in this assay)]; type: functional
[10] = inhibitors of Vif binding to APOBEC3G peptide, primary screen, biochemical, TR-FRET, GST-Vif 1-94, biotin-A3G peptide, dose response retest (AID 1117319); type: functional;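 also: TR-FRET signal of purified GST-Vif binding a biotinylated A3G peptide; inhibitors lower the FRET signal by blocking Vif and A3G binding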
[11] = A Cell Based Secondary Assay To Explore Cytotoxicity of Compounds that Sensitize Mycobacterium Tuberculosis to Beta-Lactam Antibiotics.; type: functional
[12] = P. falciparum Dd2 growth inhibitors, dose response, SYBR Green, cherry-picked samples (AID 1159567); type: functional, cell-based
[13] = molecular target: T5, Rac GTPase-activating protein 1 (Homo sapiens, UniProt Q9H0H5); test: MgcRacGAP GTPase-activating activity inhibitors, confirmation, biochemical, ADP Hunter fluorescence, primary and confirmatory (AID 624330); type: functional
T5 sequence (Q9H0H5 whole entry): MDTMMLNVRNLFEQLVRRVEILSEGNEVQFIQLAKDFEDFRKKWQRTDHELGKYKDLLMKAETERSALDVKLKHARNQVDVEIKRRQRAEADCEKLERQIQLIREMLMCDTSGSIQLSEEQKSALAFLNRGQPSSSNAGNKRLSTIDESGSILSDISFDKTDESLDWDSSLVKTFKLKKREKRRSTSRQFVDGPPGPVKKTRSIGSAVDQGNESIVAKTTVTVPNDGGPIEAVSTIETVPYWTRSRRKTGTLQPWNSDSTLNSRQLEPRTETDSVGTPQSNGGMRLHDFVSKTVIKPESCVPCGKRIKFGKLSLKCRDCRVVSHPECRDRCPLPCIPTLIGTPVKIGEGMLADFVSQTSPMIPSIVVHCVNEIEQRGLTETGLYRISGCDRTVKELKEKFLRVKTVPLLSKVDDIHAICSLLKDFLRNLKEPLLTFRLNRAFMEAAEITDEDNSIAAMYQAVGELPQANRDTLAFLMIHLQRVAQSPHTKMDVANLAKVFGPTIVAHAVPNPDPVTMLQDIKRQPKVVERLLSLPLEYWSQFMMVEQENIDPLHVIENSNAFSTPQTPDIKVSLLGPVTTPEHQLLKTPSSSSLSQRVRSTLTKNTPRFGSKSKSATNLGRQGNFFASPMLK

[14] = cytotoxicity in HPDE-C7 cells, cell-based, fluorescence, HTS (AID 430); type: functional; details: Homo sapiens
[15] = cytotoxicity in KRAS-transformed pancreatic duct cells, primary screen, cell-based, fluorescence, HTS (AID 431); type: functional; details: Homo sapiens;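 also: cell line used: HPDE-C7K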
[16] = molecular target: Voltage-dependent T-type calcium channel subunit alpha-1H (Homo sapiens, UniProt O95180); type: functional;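 also: channel activity triggered by adding a high calcium stimulation buffer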
Voltage-dependent T-type calcium channel subunit alpha-1H, sequence (O95180 whole entry): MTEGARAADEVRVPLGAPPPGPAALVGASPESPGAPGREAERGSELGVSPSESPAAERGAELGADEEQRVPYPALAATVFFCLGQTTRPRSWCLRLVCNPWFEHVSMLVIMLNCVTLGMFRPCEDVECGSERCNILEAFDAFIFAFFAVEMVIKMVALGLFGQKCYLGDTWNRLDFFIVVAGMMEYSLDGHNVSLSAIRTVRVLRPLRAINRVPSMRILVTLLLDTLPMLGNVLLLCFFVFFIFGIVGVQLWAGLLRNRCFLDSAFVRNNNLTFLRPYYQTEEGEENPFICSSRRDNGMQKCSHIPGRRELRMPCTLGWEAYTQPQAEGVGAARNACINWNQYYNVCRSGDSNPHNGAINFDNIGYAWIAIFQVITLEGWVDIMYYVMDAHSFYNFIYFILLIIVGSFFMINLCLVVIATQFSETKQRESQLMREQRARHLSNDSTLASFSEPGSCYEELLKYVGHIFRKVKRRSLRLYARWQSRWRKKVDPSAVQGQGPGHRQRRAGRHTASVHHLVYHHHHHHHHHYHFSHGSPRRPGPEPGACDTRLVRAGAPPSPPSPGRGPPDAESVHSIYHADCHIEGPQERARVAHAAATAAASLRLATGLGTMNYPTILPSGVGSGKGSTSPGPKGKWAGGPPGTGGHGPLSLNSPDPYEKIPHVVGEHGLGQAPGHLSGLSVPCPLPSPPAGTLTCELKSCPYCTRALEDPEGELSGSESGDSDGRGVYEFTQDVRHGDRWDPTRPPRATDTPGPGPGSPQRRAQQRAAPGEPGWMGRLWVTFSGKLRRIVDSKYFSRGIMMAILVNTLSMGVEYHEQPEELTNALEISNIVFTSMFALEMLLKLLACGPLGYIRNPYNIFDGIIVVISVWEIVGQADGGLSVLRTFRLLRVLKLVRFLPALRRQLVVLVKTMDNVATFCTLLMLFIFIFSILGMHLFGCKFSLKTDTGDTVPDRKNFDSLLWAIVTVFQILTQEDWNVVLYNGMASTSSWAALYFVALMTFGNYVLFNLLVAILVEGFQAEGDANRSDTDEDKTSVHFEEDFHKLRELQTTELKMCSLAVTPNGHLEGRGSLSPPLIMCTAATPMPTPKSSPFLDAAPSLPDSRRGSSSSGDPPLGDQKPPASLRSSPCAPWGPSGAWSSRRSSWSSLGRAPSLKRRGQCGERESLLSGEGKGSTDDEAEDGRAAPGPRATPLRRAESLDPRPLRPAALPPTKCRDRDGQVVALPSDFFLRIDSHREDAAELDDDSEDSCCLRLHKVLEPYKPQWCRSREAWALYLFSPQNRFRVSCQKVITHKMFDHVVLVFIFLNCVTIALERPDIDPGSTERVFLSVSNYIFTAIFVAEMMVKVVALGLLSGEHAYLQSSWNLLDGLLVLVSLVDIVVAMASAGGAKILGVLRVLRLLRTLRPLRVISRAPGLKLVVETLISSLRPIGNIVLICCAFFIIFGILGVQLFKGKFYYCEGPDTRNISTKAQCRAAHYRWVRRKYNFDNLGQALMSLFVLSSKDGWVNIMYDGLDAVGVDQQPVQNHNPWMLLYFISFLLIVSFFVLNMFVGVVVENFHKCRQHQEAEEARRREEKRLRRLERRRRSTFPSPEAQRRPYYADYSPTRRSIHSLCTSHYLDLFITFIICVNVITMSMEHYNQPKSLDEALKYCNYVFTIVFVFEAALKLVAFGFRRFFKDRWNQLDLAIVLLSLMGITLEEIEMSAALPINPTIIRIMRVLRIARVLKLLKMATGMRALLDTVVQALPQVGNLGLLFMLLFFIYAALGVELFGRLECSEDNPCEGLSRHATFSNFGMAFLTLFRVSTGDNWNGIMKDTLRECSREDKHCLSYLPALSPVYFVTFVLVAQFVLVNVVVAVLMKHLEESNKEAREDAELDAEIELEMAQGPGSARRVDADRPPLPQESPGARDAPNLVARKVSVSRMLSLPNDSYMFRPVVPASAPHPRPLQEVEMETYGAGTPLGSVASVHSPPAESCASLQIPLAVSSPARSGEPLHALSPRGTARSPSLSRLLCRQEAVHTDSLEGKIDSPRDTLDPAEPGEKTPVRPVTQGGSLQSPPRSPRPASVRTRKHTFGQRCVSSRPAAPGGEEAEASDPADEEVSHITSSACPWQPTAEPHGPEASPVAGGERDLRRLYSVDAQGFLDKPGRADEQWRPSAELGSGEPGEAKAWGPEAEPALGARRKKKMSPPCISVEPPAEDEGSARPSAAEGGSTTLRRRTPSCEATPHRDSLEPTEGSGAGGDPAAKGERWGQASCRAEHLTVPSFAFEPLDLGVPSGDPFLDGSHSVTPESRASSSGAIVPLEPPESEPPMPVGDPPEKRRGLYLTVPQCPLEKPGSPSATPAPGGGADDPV

Induced myeloid leukemia cell differentiation protein Mcl-1, sequence (Q07820 whole entry): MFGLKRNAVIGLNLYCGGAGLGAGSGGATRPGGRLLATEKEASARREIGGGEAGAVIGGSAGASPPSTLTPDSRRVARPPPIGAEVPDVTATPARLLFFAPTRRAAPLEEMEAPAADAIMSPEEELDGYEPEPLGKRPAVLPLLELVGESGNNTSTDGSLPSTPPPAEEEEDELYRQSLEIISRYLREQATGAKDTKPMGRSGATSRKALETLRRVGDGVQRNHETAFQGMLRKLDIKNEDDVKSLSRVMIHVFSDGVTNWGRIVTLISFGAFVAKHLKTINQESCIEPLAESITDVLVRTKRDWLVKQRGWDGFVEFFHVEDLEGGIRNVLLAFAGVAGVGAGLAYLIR
Nonstructural protein 1, sequence (Q194T2 whole entry): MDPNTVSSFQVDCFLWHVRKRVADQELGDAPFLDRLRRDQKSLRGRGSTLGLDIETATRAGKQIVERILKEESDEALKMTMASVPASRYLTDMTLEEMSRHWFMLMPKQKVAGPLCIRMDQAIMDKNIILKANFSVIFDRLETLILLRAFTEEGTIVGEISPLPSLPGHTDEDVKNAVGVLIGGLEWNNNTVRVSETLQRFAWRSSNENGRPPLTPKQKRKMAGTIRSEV

Cc1cc(N2CCCCC2)nc2ccc(NC(=O)c3ccc(Br)o3)cc12
IC50 [1]: 3.3 µM (not active)

CCOc1ccc(NC(=O)CSc2nc(N)c(-c3ccccc3)c(=O)[nH]2)cc1
IC50 (Leucine aminopeptidase): 5.72 µM (active)

CCOc1ccc2nc(O)c(CN(Cc3ccco3)C(=O)c3ccc(Br)cc3)cc2c1
CC50 [2]: 32.4 µM (active)

O=C(N/N=C/c1cc(Br)c(O)c(Br)c1O)c1cccnc1
IC50 (Nonstructural protein 1): 15.5 µM (active) | AC50 (Caspase-6): 22.9 µM (active)

COc1cccc(-c2nn(C)c3sc(C(=O)Nc4ccc5c(c4)OCCO5)cc23)c1
EC50 [3]: 5.99 µM (active) | EC50 [4]: 22.9 µM (active) | EC50 [5]: 6.53 µM (active) | EC50 (H4): > 120 µM (not active) | EC50 (Streptokinase A): > 150 µM (not active) | EC50 (Streptococcus): 13.9 µM (active) | CC50 [2]: > 40 µM (active)

O=S(=O)(Nc1ccc(-c2csc(-c3ccccc3)n2)cc1)c1ccc(F)cc1
EC50 [5]: 2.05 µM (active) | EC50 (Streptokinase A): 8.48 µM (active) | EC50 [6]: 2.45 µM (active) | IC50 [1]: 8.02 µM (not active) | EC50 [7]: > 60 µM (not active) | EC50 (Streptococcus): 5.63 µM (active)

COc1cc(C2Nc3cccc4cccc(c34)N2)cc(OC)c1OC(C)=O
IC50 [8]: 2.8 µM (active) | CC50 [9]: > 40 µM (active)

Cn1c(SCC(=O)NCc2ccc3c(c2)OCO3)nnc1C1COc2ccccc2O1 (stereo unspecified)
IC50 (Leucine aminopeptidase): < 1 µM (active)

CC(=O)Nc1ccc(S(=O)(=O)n2cnc3cc(C)c(C)cc32)cc1
IC50 (Prothrombin): > 50 µM (not active)

COC(=O)c1c(NC(=O)CC2NCCNC2=O)sc2c1CCCC2 (stereo unspecified)
CC50 [2]: > 40 µM (active)

Clc1ccc(/C(Cc2nc3ccccc3[nH]2)=N\Nc2ccccc2)cc1
CC50 [9]: > 40 µM (active)

O=C1c2ccccc2C(=O)N1CCC(c1ccc(F)cc1)c1ccco1 (stereo unspecified)
IC50 [10]: > 100 µM (active)

CC1=NNC(=O)C1CCC(=O)N/N=C\c1ccc(Cl)c(Cl)c1 (stereo unspecified)
IC50 (Leucine aminopeptidase): 15 µM (active)

COc1ccc(-n2c(=O)[nH]c3ccccc3c2=O)c(OC)c1
IC50 [10]: > 100 µM (active)

Cc1c(C=O)c(C=O)c(C)n1Cc1ccccc1
CC50 [11]: 4.47 µM (active) | CC50 [2]: 6.52 µM (active)

COc1ccc(NC(=O)N(C)C[C@@H]2Oc3cc(-c4ccc(C)cc4)ccc3S(=O)(=O)N([C@@H](C)CO)C[C@@H]2C)cc1
AC50 [12]: 3.21 µM (active)

COc1cc(/C=N/Nc2ccc(C(=O)O)cc2)ccc1O
IC50 [13]: 39.9 µM (active) | AC50 (Caspase-6): 11.1 µM (active)

C/C(=N\NC(=O)Cc1c(C)n[nH]c1O)c1ccc2ccccc2c1
IC50 (Leucine aminopeptidase): 14 µM (active)

CN1CCN(C(=O)CSc2nc(-c3cccs3)cc(-c3cccs3)c2C#N)CC1
EC50 [14]: 10 µM (active) | EC50 [15]: 9.41 µM (active)

CCCCC1=CC2=C(c3ccco3)C(=O)C(C)(OC(=O)c3ccc(OC)cc3)C(=O)C2=CN1CCCCO (stereo unspecified)
IC50 [10]: > 100 µM (active)

Cn1c(N)c(C(=O)COC(=O)c2ccc(Cl)c(S(=O)(=O)N3CCCCC3)c2)c(=O)n(C)c1=O
IC50 [1]: 29.2 µM (not active)

c1ccc(CCc2nn3c(C4COc5ccccc5O4)nnc3s2)cc1 (stereo unspecified)
CC50 [9]: > 40 µM (active)

COc1ccccc1-c1ccccc1[C@@H]1[C@@H](C#N)N(C(=O)C2CC2)[C@@H]1CO
AC50 [12]: 17.4 µM (active)

Cn1c(Cl)nc2c1c(=O)n(Cc1cccc(Br)c1)c(=O)n2C
IC50 (Prothrombin): > 50 µM (not active)

CC(C)(C)n1nc2c(c1NC(=O)c1ccc(Br)o1)C[S+]([O-])C2 (stereo unspecified)
IC50 [10]: > 100 µM (active)

CCC(=O)Oc1ccc2c(C)c(Cl)c(=O)oc2c1
IC50 (Prothrombin): > 50 µM (not active)

Cc1ccc(S(=O)(=O)c2nc(-c3ccccc3)oc2NCc2cccnc2)cc1
EC50 [16]: 8.55 µM (active)

O=C(Nc1ccccc1)c1nnn(Cc2ccccc2)c1NC(=O)C(F)(F)F
EC50 [16]: 4.59 µM (active)

O=C(NC1CCCCC1)N1CCS/C1=N\c1ccccc1
EC50 [16]: 7.51 µM (active)

O=C(NNc1cc(Cl)cc(Cl)c1)c1c(F)cccc1Cl
CC50 [9]: > 40 µM (active)
